Assay results taken from patent US6472516B1, “Progestin-regulated gene” (The Garvan Institute of Medical Research, priority 1995, dated 2002).
Marks after values point to notes of the source that are not given here. Numbered stars: 1 amine (or outer) side, 2 acyl side, 3 side chain; on linkers, the order of the positions; unused ones are H or OH. Bridge positions count the residues as written; N and C are the ends. Square brackets hold non-standard residues; d marks the D form. Peptide text beside a SMILES is read from it. I, II: the chains in the order shown. Actinocin(9to1) = Cc1c2oc3c(C)ccc(C(=O)[*:1])c3nc-2c(C(=O)[*:2])c(N)c1=O; NMeV = CN[C@H](C(=O)O)C(C)C; Sar = CNCC(=O)O

Assays:
[1] = test system: PRG1 mRNA; assay: Northern analysis of PRG1 mRNA expression in T-47D cells; format: cell-based, human; settings: for Induction of PRG1 mRNA by mitogen: T-47D growth-arrested by serum deprivation, 3 or 4 h, insulin 1.7 μM, heregulin 5 nM, bFGF 55 pM; for Relative mRNA Expression: relative to cells maintained in serum-free medium
Experimental: (§1) The sources and maintenance of the human breast cancer cell lines used in this study were as described previously (33). 184 and 184B5 normal breast epithelial cells were the kind gift of Dr. M. Stampfer (University of California, Berkley, Calif.) and were maintained in mammary epithelial growth medium (Clonetics, San Diego, Calif.). Tissue culture experiments in serum-free medium were performed as previously described (6, 27). Briefly, T-47D cells were taken from stock cultures and passaged for 6 days in phenol red-free RPMI medium supplemented with 10% charcoal-treated fetal calf serum (FCS). During this time the cells received two changes of medium at 1- to 3-day intervals. The cells were replated into replicate 150 cm^2 flasks in medium containing 10% charcoal-treated FCS and the medium replaced with serum-free medium on the next two days. Serum-free medium was supplemented with 300 nM human transferrin. In experiments involving ORG 2058 the final serum-free medium contained 10 μg/ml (1.7 μM) human insulin. Three days after completion of these pre-treatments growth factor, steroid, steroid antagonist or cycloheximide were added. Control flasks received vehicle to the same final concentration. Cell cycle phase distribution was determined by analytical DNA flow cytometry, as previously described (6, 34).
Tissue culture experiments in serum-containing medium were performed as previously described (34). The experiment with livial and actinomycin D was as for experiments in serum-containing medium except that the medium contained 5% charcoal-treated FCS. Actinomycin D was added at the same time as livial. The experiment involving “estrogen rescue” was performed as described (30). Briefly, MCF-7 cells were cultured in medium containing 5% FCS for 2 days. The antiestrogen ICI 182780 (10 nM) was then added to the medium for 48 h. after which the growth-arrested cells were treated with 100 nM 17β-estradiol, also added directly to the medium, resulting in the synchronous re-entry of cells into the cell cycle.
Cells harvested from triplicate 150 cm^2 flasks were pooled and RNA extracted by a guanidinium-isothiocyanate-cesium chloride procedure and Northern analysis was performed as previously described with 20 μg of total RNA per lane (6, 11). The membranes were hybridized overnight at 50° C. with probes labelled with [α-^32P]dCTP (Amersham Australia Pty Ltd, Castle Hill, Australia) using the Random Prime Labelling Kit (Promega, Sydney, Australia). The membranes were washed at a highest stringency of 0.2× SSC (30 mM NaCl. 3 mM sodium citrate [pH 7.0])+ 1% sodiwn dodecyl sulfate at 65° C. and exposed to Kodak X-OMAT or BIOMAX film at −70° C. Human multiple tissue Northern blots (Clontech Laboratories, Inc. Palo Alto, Calif.) were hybridized under conditions recommended by the manufacturer. The mRNA abundance was quantified by densitometric analysis of autoradiographs using Molecular Dynamics Densitometer and software (Molecular Dynamics, Sunnyvale, Calif.). The accuracy of loading was estimated by hybridizing membranes with a [γ-^32P]ATP end-labelled oligonucleotide complementary to 18S rRNA.

[2] = test system: T-47D cells; settings: previously reported (refs 32, 54); cited from earlier work
[3] = test system: PRG1 mRNA; assay: Northern analysis of PRG1 mRNA expression in MDA-MB-231 cells; format: cell-based, human
Experimental: as §1
(§2) Tissue culture experiments in serum-containing medium were performed as previously described (34). The experiment with livial and actinomycin D was as for experiments in serum-containing medium except that the medium contained 5% charcoal-treated FCS. Actinomycin D was added at the same time as livial. The experiment involving “estrogen rescue” was performed as described (30). […]
(§3) Cells harvested from triplicate 150 cm^2 flasks were pooled and RNA extracted by a guanidinium-isothiocyanate-cesium chloride procedure and Northern analysis was performed as previously described with 20 μg of total RNA per lane (6, 11). […] The mRNA abundance was quantified by densitometric analysis of autoradiographs using Molecular Dynamics Densitometer and software (Molecular Dynamics, Sunnyvale, Calif.). […]

[4] = test system: PRG1 mRNA; assay: Northern analysis of PRG1 mRNA expression in MCF-7 cells; format: cell-based, human
Experimental: as §1, §2, §3

[5] = T-47D, insulin-supplemented serum-free medium, 10 nM

CC#C[C@]1(O)CC[C@H]2[C@@H]3CCC4=CC(=O)CCC4=C3[C@@H](c3ccc(N(C)C)cc3)C[C@@]21C [RU 486]
Effect on PRG1 mRNA levels, compound alone ([1]; T-47D, serum-free medium with insulin, 100 nM, 3 h): no effect

insulin: human insulin, Actrapid; CSL-Novo
Potency as mitogen in stimulating cell cycle progression [2]: equipotent
Induction of PRG1 mRNA by mitogen [1]: 2.8 fold
Relative mRNA Expression ([1]; T-47D, at 4 h): 2.8^† at 4 h

C[C@@H]1C[C@H]2[C@@H]3CCC4=CC(=O)C=C[C@]4(C)[C@@]3(F)[C@@H](O)C[C@]2(C)[C@@]1(O)C(=O)CO [dexamethasone, 9-fluro-11,17,21-trihydroxy-16-methylpregn-1,4-diene-3,20-dione]
PRG1 mRNA as percent of control levels ([3]; MDA-MB-231, 100 nM, 3 h): approximately 60 % of control

bFGF: human recombinant bFGF
Potency as mitogen in stimulating cell cycle progression [2]: equipotent
Induction of PRG1 mRNA by mitogen [1]: 1.9 fold
Relative mRNA Expression ([1]; T-47D, at 3 h): 2.6^† at 3 h

C[C@@H]1C[C@@H]([C@H](O)CC2CC(=O)NC(=O)C2)C(=O)[C@@H](C)C1 [cycloheximide, Cycloheximide]
Effect on PRG1 mRNA, compound alone ([1]; T-47D, cycloheximide 20 μg/ml alone, 3 h): increase of PRG1 mRNA to a level similar to that achieved by ORG 2058 alone
Effect on progestin-mediated induction of PRG1 mRNA ([1]; T-47D, cycloheximide 20 μg/ml with ORG 2058 10 nM, 3 h): failed to block

Cc1c2oc3c(C)ccc(C(=O)N[C@@H]4C(=O)N[C@H](C(C)C)C(=O)N5CCC[C@H]5C(=O)N(C)CC(=O)N(C)[C@@H](C(C)C)C(=O)O[C@@H]4C)c3nc-2c(C(=O)N[C@@H]2C(=O)N[C@H](C(C)C)C(=O)N3CCC[C@H]3C(=O)N(C)CC(=O)N(C)[C@@H](C(C)C)C(=O)O[C@@H]2C)c(N)c1=O [actinomycin D] (I: T[dV]P[Sar][NMeV] / II: T[dV]P[Sar][NMeV]; ester I:1-I:C, II:1-II:C; linker I:N-II:N via Actinocin(9to1))
Effect on progestin induction of PRG1 mRNA ([1]; T-47D, actinomycin D 5 μg/ml with livial 10 nM): blocked

C#C[C@]1(O)CC[C@H]2[C@@H]3[C@H](C)CC4=C(CCC(=O)C4)[C@H]3CC[C@@]21C [livial, (7α, 17α)-17-hydroxy-7-methyl-19-norpregn-5(10)-en-20-yn-3-one]
PRG1 mRNA induction (in words) ([1]; T-47D, 5% charcoal-treated FCS, 10 nM): induced
PRG1 mRNA induction in presence of transcription inhibitor ([1]; T-47D, 5% charcoal-treated FCS, livial 10 nM with actinomycin D 5 μg/ml): not induced

heregulin
Potency as mitogen in stimulating cell cycle progression [2]: one of the most potent mitogens
Induction of PRG1 mRNA by mitogen [1]: 2.6 fold
Relative mRNA Expression ([1]; T-47D, at 4 h): 1.9^† at 4 h

CCC1CC2C3CCC4=CC(=O)CCC4C3CCC2(C)C1C(=O)CO (stereo not drawn) [ORG 2058, 16α-ethyl-21-hydroxy-19-norpregn-4-en-3,20-dione]
PRG1 mRNA increase above control mRNA levels ([4]; MCF-7 (PR-positive), 5% FCS, 10 nM, 3 h): approximately 2 fold
PRG1 mRNA decrease below control mRNA levels ([3]; MDA-MB-231 (PR-negative), 10 nM, 3 h): approximately 30%
PRG1 mRNA level at 6 h after the decrease at 3 h (in words) ([3]; MDA-MB-231, 6 h, ORG 2058 10 nM, dexamethasone 100 nM): recovery
Superinduction of PRG1 mRNA relative to control ([1]; T-47D, ORG 2058 10 nM in presence of cycloheximide 20 μg/ml, 3 h, experiment of FIG. 8): 12 fold
Time by which PRG1 mRNA had returned to control levels [1, 5]: ≤ 12 h
Time of maximal PRG1 mRNA induction [1, 5]: 3 h
Maximal PRG1 mRNA induction relative to time-matched control ([1]; T-47D, insulin-supplemented serum-free medium, 10 nM, 3 h, experiment of FIG. 5): 4.4 fold

C[C@]12CC[C@@H]3c4ccc(O)cc4CC[C@H]3[C@@H]1CC[C@@H]2O [17β-estradiol]
Relative mRNA Expression ([4]; MCF-7, at 4 h, after ICI 182 780 pre-treatment for 48 h, relative to antiestrogen treated control): 2.0^‡ at 4 h
Induction of PRG1 mRNA by estrogen rescue ([4]; MCF-7 growth-arrested by ICI 182780 (10 nM, 48 h), then 100 nM 17β-estradiol, 4 h): 2.0 fold
